# Assays:
# [1] = Fluorescence anisotropy titration: association with electroneutral DMPC vesicles; type: physicochemical
# Protocol: (§1) Vesicle Preparation. Small unilamellar vesicle (SUV) suspensions were prepared the day of an experiment by the method of Burke et al. (T. G. Burke, A. K. Mishra, M. C. Wani, and M. E. Wall, Lipid Bilayer Partitioning and Stability of Camptothecin Drugs, Biochem., 32(20), 5352 (1993)). Briefly, stock lipid suspensions containing 200 mg/mL lipid in phosphate buffered saline (PBS, pH 7.4) were prepared by Vortex mixing for 5-10 min above the TM of the lipid. The lipid dispersions were then sonicated using a bath-type sonicator (Laboratory Supplies Co., Hicksville, N.Y.) for 3-4 h until they became optically clear. […] Each type of vesicle suspension was annealed for 30 min at 37° C. and then used in an experiment.
# (§2) Fluorescence Instrumentation. Steady-state fluorescence measurements were obtained on a SLM Model 9850 spectrofluorometer with a thermostated cuvette compartment. This instrument was interfaced with an IBM PS/2 model 55 SX computer. Excitation and emission spectra were recorded with an excitation resolution of 8 nm and an emission resolution of 4 nm. In all cases spectra were corrected for background fluorescence and scatter from unlabeled lipids or from solvents by subtraction of the spectrum of a blank. Steady-state fluorescence intensity measurements were made in the absence of polarizers. Steady-state anisotropy (a) measurements were determined with the instrument in the "T-format" for simultaneous measurement of two polarized intensities. […] The anisotropy was calculated from a =(IVV -GIVH)/(IVV +2GIVH), where G=IHV /IHH and the subscripts refer to vertical and horizontal orientations of the excitation and emission polarizers, respectively.
# (§3) Anisotropy measurements for camptothecins were conducted using exciting light in the range of 370 nm to 400 nm and long pass filters on each emission channel in order to isolate the drug's fluorescence signal from background scatter and/or residual fluorescence. […] The combination of exciting light and emission filters allowed us to adequately separate fluorescence from background signal. […]
# [2] = Fluorescence anisotropy titration: association with negatively-charged DMPG vesicles; type: physicochemical
# Protocol: as §1, §2, §3
# [3] = Fluorescence emission spectra in solvents and vesicle suspensions; type: physicochemical; details: 37° C
# Protocol: FIG. 1 is the fluorescence emission spectra of 1 μM of 7-(1-Aminoethyl)camptothecin (7AEC) in various solvents and suspensions such as phosphate buffered saline, ethanol, and phosphate buffered saline containing small unilamellar vesicles (SUVs) composed either of dimyristoylphosphatidylcholine (DMPC) or dimyristoylphosphatidlyglycerol (DMPG). Experiments were conducted at 37° C. using exciting light of 370 nm.
# FIG. 2 is the fluorescence emission spectra of 4 μM of 7-[N-(4-methyl-1-piperazino) aminomethyl]-(20S)-camptothecin (CT-17) in various solvents and suspensions such as phosphate buffered saline, ethanol, and phosphate buffered saline containing small unilamellar vesicles (SUVs) composed either of DMPC or DMPG. Experiments were conducted at 37° C. using exciting light of 370 nm.
# Fluorescence Instrumentation. Steady-state fluorescence measurements were obtained on a SLM Model 9850 spectrofluorometer with a thermostated cuvette compartment. This instrument was interfaced with an IBM PS/2 model 55 SX computer. Excitation and emission spectra were recorded with an excitation resolution of 8 nm and an emission resolution of 4 nm. In all cases spectra were corrected for background fluorescence and scatter from unlabeled lipids or from solvents by subtraction of the spectrum of a blank. Steady-state fluorescence intensity measurements were made in the absence of polarizers. […]
# [4] = tested on: topoisomerase I; assay: Topoisomerase I mediated DNA cleavage (cleavable complex induction); type: biochemical
# Description: Evaluation of the Relative Abilities of the Novel Polyamine Camptothecin Analogs to Induce Topoisomerase I Mediated DNA Single Strand Breaks. We have evaluated the abilities of the novel compounds of the present invention to inhibit the topoisomerase I enzyme. In these experiments the oligonucleotide was labeled at the 3'-end of the upper (scissile) strand with 32P-α-cordycepin and terminal transferase (Pommier, Y., Kohlhagen, G., Kohn, F., Leteurtre, F., Wani, M. C., and Wall, M. E. Proc. Natl. Acad. Sci. U.S.A. 92:8861-8865, 1995). Topoisomerase I (Top1) cleavage generates a 23mer that can be easily detected by electrophoresis and quantitated by Phosphorimager analysis. Tanizawa et al. (Tanizawa, A., Kohn, K. W., Kohlhagen, G., Leteurtre, F., and Pommier, Y. Biochemistry […]:7200-7206, 1995) have previously shown that camptothecin derivatives differ in the manner in which they stabilize the top1 cleavable complexes that they induce. The novel polyamine camptothecins of the present invention were compared in this assay. 0.35M NaCl was added to force top 1-mediated DNA religation and DNA cleavage was measured at various times after NaCl addition. FIG. 9 is a typical phosphoimager picture showing the timecourse of the effects of various camptothecins on the relaxation of DNA in the presence of topoisomerase I. Topoisomerase I-mediated cleavage generates DNA fragments that can be readily detected by electrophoresis and quantitated by phosphorimager analysis.
# FIG. 10 is a phosphoimager picture showing the dose response of various camptothecin compounds described in the present invention on the relaxation of DNA in the presence of topoisomerase I. Topoisomerase I-mediated cleavage generates DNA fragments that can be readily detected by electrophoresis and quantitated by phosphorimager analysis as shown.
# FIG. 11 contains a phosphoimager picture (bottom figure) showing the dose response effects of several of the novel polyamine camptothecins of the current invention on the relaxation of DNA in the presence of topoisomerase I. Topoisomerase I-mediated cleavage generates DNA fragments that can be readily detected by electrophoresis and quantitated by phosphorimager analysis (top figure).
compound,measurement,setting,value
"CC[C@@]1(O)C(=O)OCc2c1cc1n(c2=O)Cc2c-1nc1ccccc1c2CNN1CCN(C)CC1 [CT-17, 7-[N-(4-methyl-1-piperazino)aminomethyl]-(20S)-camptothecin]",Overall association constant KDMPC,"[1]; PBS buffer, pH 7.4, physiological temperature, DMPC",30 M⁻¹
same,reduction in membrane binding relative to 7AEC (DMPC),[1]; electroneutral DMPC membranes,greater than 2 fold
same,Overall association constant KDMPG,"[2]; PBS buffer, pH 7.4, physiological temperature, DMPG",800 M⁻¹
same,reduction in membrane binding relative to 7AEC (negatively-charged membranes),[2]; negatively-charged DMPG membranes,three-fold
same,change of fluorescence emission upon introduction of lipid bilayers,[3]; PBS with lipid bilayers,increase in fluorescence intensity
same,shift of the fluorescence emission spectra in the presence of liposomes,"[3]; liposomes of DMPC or DMPG, λex 370 nm",shifts to shorter wavelength
same,potency at promoting DNA cleavage relative to camptothecin and SN-38,[4]; FIG. 11 quantitation,somewhat less potent
same,distribution of cleavage sites vs camptothecin or SN-38,[4]; topoisomerase I,comparable to those generated by camptothecin or 7-ethyl-10-hydroxycamptothecin (SN-38)
same,induction of cleavable complex formation,"[4]; topoisomerase I, 3'-32P-labeled oligonucleotide",capable of inducing cleavable complex formation

# Source: patent US6291676A, “Water-soluble derivatives of camptothecin/homocamptothecin” (priority 2000, dated 2001)
